Reference: patent US20110144125A1, “Anti-Arrhythmia Agents, Methods of Their Use, Methods of Their Identification and Kits Therefore” (THE UAB RESEARCH FOUNDATION, priority 2008, published 2011)

System: rat right atria
Experiment: Right atrial spontaneous (pacemaker-driven) contraction frequency
Conditions: 30 nM isoproterenol
Experimental: Male Sprague-Dawley rats (325-400 g) were anesthetized with intra-peritoneal pentobarbital (0.1 g/kg). Their right and left atria were isolated, superfused at 30° C. in Krebs-Henseleit buffer, and nearly isometric forces of contraction were measured from these muscles (Wolkowicz et al., 2002). 2-APB was prepared as a 150 mM dimethyl sulfoxide stock.
Left atria (n=9) were paced at 0.1 Hz, treated with 300 nM BayK 8644 for 5 min, then with 20 μM 2-APB for 10 min, and the pacing stimulus was stopped. These preparations then were incubated with six increasing concentrations of zatebradine (10-100 μM) for 3-5 min at each concentration, and rates of SMA were recorded. Untreated right atria (n=9) also were titrated with zatebradine and its effect on contraction frequency was recorded.
To test whether zatebradine affects the SMA occurring in the presence of 2-APB and isoproterenol, left atria (n=7) were paced at 0.1 Hz, treated with 30 nM isoproterenol for 5 min, then with 20 μM 2-APB for 10 min, and the pacing stimulus was stopped. Rates of SMA were recorded, these left atria were exposed to 70 μM zatebradine for 10 min, and rates of SMA were recorded again. A group of right atria (n=7) also were exposed to 30 nM isoproterenol for 5 min and then to 70 μM zatebradine for 10 min. Right atrial contraction frequency was recorded at these two times.
To test whether ZD-7288 (4-Ethylphenyl amino-1,2-dimethyl-6-methylaminopyridinium chloride), an If inhibitor structurally unrelated to zatebradine (Baruscotti et al., 2005; Sanders et al., 2006) affects the SMA occurring in the presence of 2-APB and BayK 8644, rat left atria (n=7) were treated with 300 nM BayK 8644 for 5 min, then with 20 μM 2-APB for 10 min, and the rates of SMA were recorded. These atria then were incubated with six increasing concentrations of ZD-7288 (10-100 μM) for 3-5 min at each concentration, and the rates of SMA were recorded. Right atria (n=7) were titrated similarly with ZD-7288 (0-100 μM) and the change in their contraction frequency was recorded.

CC(C)NCC(O)c1ccc(O)c(O)c1 (stereo not shown) [isoproterenol]
right atrial contraction frequency: 276±11.4 contractions/min
